For assay [1], the target named is B-Raf V600E (Homo sapiens (Human), UniProt P15056, V600E). As to the kind of experiment: B-Raf V600E kinase biochemical activity assay (AlphaScreen, biotin-MEK1 substrate). Particulars: 100 μM ATP. The procedure:
Assays for biochemical and cell based activity are known in the art, for example, as described in PCT publication WO 2007/002433, the disclosure of which is hereby incorporated by reference as it relates to such assays. For example, the biochemical activity IC50 values are determined with respect to inhibition of B-Raf V600E kinase activity or p-Erk kinase activity, where inhibition of phosphorylation of a peptide substrate is measured as a function of compound concentration. Compounds to be tested are diluted in dimethyl sulfoxide to a concentration of 0.1 mM. These are serially diluted 15 μL into 30 μL of dimethyl sulfoxide seven times in 96 well plates for a total of 8 dilution points, and for each dilution point 1 μL is added to a well of an assay plate. Plates are prepared such that each well in a 384 well plate contains 1 μL of compound in 10 μL volume with 0.1 ng Raf enzyme (i.e. any of B-Raf, c-Raf-1 or B-Raf V600E, Upstate Biotechnology or prepared by methods known to one of skill in the art), 50 mM HEPES, pH 7.0, 50 mM NaCl, 2 mM MgCl2, 1 mM MnCl2, 0.01% Tween-20, 1 mM DTT, and 100 nM biotin-MEK1 as substrate. The reaction is started with addition of 10 μL of 200 μM ATP (i.e. final 100 μM ATP). After incubation of the kinase reaction for 45 minutes at room temperature, 5 μL/well of Stop Solution is added (25 mM Hepes pH 7.5, 100 mM EDTA, 0.01% BSA with donor beads (Streptavidin coated beads, Perkin Elmer), acceptor beads (Protein A coated, Perkin Elmer), and anti phosphor MEK1/2 antibody (CellSignal), each at final concentration 10 μg/mL). The plates are incubated for 3 hours at room temperature and read on Envision reader (Perkin Elmer). Phosphorylation of Mek1 results in binding of the anti-phosphor-MEK1/2antibody and association of the donor and acceptor beads such that signal correlates with kinase activity. The signal vs. compound concentration is used to determine the IC50.

Assay [2] has as its system COLO205 colon adenocarcinoma cells (B-Raf V600E mutation). The experiment in a line: COLO205 cell growth inhibition (ATPlite). The format is cell-based. As to conditions: Homo sapiens, COLO 205, 72 h, 3 days. The procedure: Compounds are assessed in a variety of cell based assays.
On day 1, cells are counted, then centrifuged in a conical tube for 5 minutes at 1000 rpm.
On day 2, compound at a maximum concentration of 5 mM is serially diluted 1:3 (e.g. 10 μL with 30 μL dimethyl sulfoxide) for a total of 8 point titration with DMSO as a control. A 1 μL aliquot of each dilution point and control is added to 249 μL growth media and 50 μL is added to a well containing cells, providing 10 μM compound at the maximum concentration point. The cells are incubated for 3 days at 37° C. in 5% CO2.
ATPlite is added 25 μL to each well, shake for 2 minutes, and the cells are incubated at room temperature for 10 minutes, then luminescence is read on Safire reader. The measured luminescence correlates directly with cell number, such that the reading as a function of compound concentration is used to determine the IC50 value.

Sequence of B-Raf V600E (P15056 whole entry V600E): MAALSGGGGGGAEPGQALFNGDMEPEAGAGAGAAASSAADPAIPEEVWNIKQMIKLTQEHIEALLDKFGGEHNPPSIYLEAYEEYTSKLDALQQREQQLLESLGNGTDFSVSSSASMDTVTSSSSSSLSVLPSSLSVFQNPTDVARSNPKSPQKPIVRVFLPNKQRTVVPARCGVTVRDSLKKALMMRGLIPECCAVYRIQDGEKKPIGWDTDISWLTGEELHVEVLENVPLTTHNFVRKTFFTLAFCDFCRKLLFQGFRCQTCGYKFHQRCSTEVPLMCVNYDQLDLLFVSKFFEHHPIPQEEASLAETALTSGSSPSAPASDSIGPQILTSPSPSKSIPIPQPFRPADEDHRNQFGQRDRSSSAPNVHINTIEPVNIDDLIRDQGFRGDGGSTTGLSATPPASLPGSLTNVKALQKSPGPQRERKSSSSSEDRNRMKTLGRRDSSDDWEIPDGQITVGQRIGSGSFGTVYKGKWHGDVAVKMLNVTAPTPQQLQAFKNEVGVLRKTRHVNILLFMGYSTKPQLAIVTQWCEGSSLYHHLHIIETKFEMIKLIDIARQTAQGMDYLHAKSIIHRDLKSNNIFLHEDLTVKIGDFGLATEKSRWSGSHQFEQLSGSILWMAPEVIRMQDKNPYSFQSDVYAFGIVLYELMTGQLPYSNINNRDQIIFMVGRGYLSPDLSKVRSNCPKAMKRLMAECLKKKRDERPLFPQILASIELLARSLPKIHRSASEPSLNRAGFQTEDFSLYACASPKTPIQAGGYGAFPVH

Turning to `COc1ncc(-c2cnc3[nH]cc(C(=O)c4cccc(NS(=O)(=O)N5CCCC5C)c4F)c3c2)cn1` (centres unmarked) [Compound P-0074, N-[2-fluoro-3-[5-(2-methoxypyrimidin-5-yl)-1H-pyrrolo[2,3-b]pyridine-3-carbonyl]phenyl]-2-methyl-pyrrolidine-1-sulfonamide], the IC50 was > 0.1 µM in assay [1] and > 1 µM in assay [2].

Turning to `CCN(C)S(=O)(=O)Nc1cccc(C(=O)c2c[nH]c3ncc(-c4ccc(N(C)C)nc4)cc23)c1F` [Compound P-0076, 5-[6-(dimethylamino)-3-pyridyl]-3-[3-[[ethyl(methyl)sulfamoyl]amino]-2-fluoro-benzoyl]-1H-pyrrolo[2,3-b]pyridine], the half-inhibitory concentration (IC50) was < 0.1 µM in assay [1] and < 1 µM in assay [2].

`CCN(C)S(=O)(=O)Nc1cccc(C(=O)c2c[nH]c3ncc(-c4cnc(NC5CC5)nc4)cc23)c1F` [Compound P-0077, 5-[2-(cyclopropylamino)pyrimidin-5-yl]-3-[3-[[ethyl(methyl)sulfamoyl]amino]-2-fluoro-benzoyl]-1H-pyrrolo[2,3-b]pyridine]: the IC50 in assay [1] is < 0.1 µM; in assay [2] it was < 1 µM.

In the case of `CCCN(C)S(=O)(=O)Nc1ccc(F)c(C(=O)c2c[nH]c3ncc(-c4cnc(C5CC5)nc4)cc23)c1F` [Compound P-0078, 5-(2-cyclopropylpyrimidin-5-yl)-3-[2,6-difluoro-3-[[methyl(propyl)sulfamoyl]amino]benzoyl]-1H-pyrrolo[2,3-b]pyridine], the results for the IC50 in assay [1] and in assay [2] were < 0.1 µM and > 1 µM, respectively.

In the case of `COCCN(C)S(=O)(=O)Nc1cccc(C(=O)c2c[nH]c3ncc(-c4ccc(C5(C#N)CC5)cc4)cc23)c1F` [Compound P-0080, 5-[4-(1-cyanocyclopropyl)phenyl]-3-[2-fluoro-3-[[2-methoxyethyl(methyl)sulfamoyl]amino]benzoyl]-1H-pyrrolo[2,3-b]pyridine], the half-maximal inhibitory concentration (IC50) in assay [1] is < 0.1 µM; in assay [2] it was > 1 µM.

As to `COCCN(C)S(=O)(=O)Nc1cccc(C(=O)c2c[nH]c3ncc(-c4cnc(NC5CC5)nc4)cc23)c1F` [Compound P-0081, 5-[2-(cyclopropylamino)pyrimidin-5-yl]-3-[2-fluoro-3-[[2-methoxyethyl(methyl)sulfamoyl]amino]benzoyl]-1H-pyrrolo[2,3-b]pyridine], the IC50 was < 0.1 µM in assay [1] and < 1 µM in assay [2].

For the molecule `CN(CC1CC1)S(=O)(=O)Nc1cccc(C(=O)c2c[nH]c3ncc(-c4cnc(C5CC5)nc4)cc23)c1F` [Compound P-0084, 3-[3-[[cyclopropylmethyl(methyl)sulfamoyl]amino]-2-fluoro-benzoyl]-5-(2-cyclopropylpyrimidin-5-yl)-1H-pyrrolo[2,3-b]pyridine], the figures for the IC50 in assay [1] and in assay [2] were < 0.1 µM and < 1 µM, respectively.

Consider `COCCN(C)S(=O)(=O)Nc1cccc(C(=O)c2c[nH]c3ncc(-c4cnc(C5CC5)nc4)cc23)c1F` [Compound P-0085, 5-(2-cyclopropylpyrimidin-5-yl)-3-[2-fluoro-3-[[2-methoxyethyl(methyl)sulfamoyl]amino]benzoyl]-1H-pyrrolo[2,3-b]pyridine], for which the IC50 in assay [1] was < 0.1 µM; in assay [2] it was > 1 µM.

`COc1ncc(-c2cnc3[nH]cc(C(=O)c4cccc(NS(=O)(=O)N5CC(F)(F)C5)c4F)c3c2)cn1` [Compound P-0088, 3,3-difluoro-N-[2-fluoro-3-[5-(2-methoxypyrimidin-5-yl)-1H-pyrrolo[2,3-b]pyridine-3-carbonyl]phenyl]azetidine-1-sulfonamide]: the 50% inhibitory concentration (IC50) in assay [1] was < 0.1 µM; in assay [2], > 1 µM.

`CCN(C)S(=O)(=O)Nc1cccc(C(=O)c2c[nH]c3ncnc(N[C@@H](C)C4CC4)c23)c1F` [Compound P-0089, 4-[[(1S)-1-cyclopropylethyl]amino]-5-[3-[[ethyl(methyl)sulfamoyl]amino]-2-fluoro-benzoyl]-7H-pyrrolo[2,3-d]pyrimidine]: the IC50 in assay [1] was < 0.1 µM; in assay [2], > 1 µM.

For the molecule `N#Cc1ccc(-c2cnc3[nH]cc(C(=O)c4cccc(NS(=O)(=O)N5CCCC5)c4F)c3c2)cc1` [Compound P-0090, N-[3-[5-(4-cyanophenyl)-1H-pyrrolo[2,3-b]pyridine-3-carbonyl]-2-fluoro-phenyl]pyrrolidine-1-sulfonamide], the IC50 in assay [1] was < 0.1 µM; in assay [2], < 1 µM.

With `Cc1ncc(-c2cnc3[nH]cc(C(=O)c4cccc(NS(=O)(=O)N5CCCC5)c4F)c3c2)cn1` [Compound P-0092, N-[2-fluoro-3-[5-(2-methylpyrimidin-5-yl)-1H-pyrrolo[2,3-b]pyridine-3-carbonyl]phenyl]pyrrolidine-1-sulfonamide], the IC50 in assay [1] was < 0.1 µM; in assay [2], < 1 µM.

For the molecule `N#Cc1cncc(-c2cnc3[nH]cc(C(=O)c4cccc(NS(=O)(=O)N5CCCC5)c4F)c3c2)c1` [Compound P-0093, N-[3-[5-(5-cyano-3-pyridyl)-1H-pyrrolo[2,3-b]pyridine-3-carbonyl]-2-fluoro-phenyl]pyrrolidine-1-sulfonamide], the values for the IC50 in assay [1] and in assay [2] were < 0.1 µM and < 1 µM, respectively.

On to `N#Cc1ccc(-c2cnc3[nH]cc(C(=O)c4cccc(NS(=O)(=O)N5CCCC5)c4F)c3c2)cn1` [Compound P-0094, N-[3-[5-(6-cyano-3-pyridyl)-1H-pyrrolo[2,3-b]pyridine-3-carbonyl]-2-fluoro-phenyl]pyrrolidine-1-sulfonamide], for which the IC50 in assay [1] was < 0.1 µM; in assay [2] it was < 1 µM.

`O=C(c1cccc(NS(=O)(=O)N2CCCC2)c1F)c1c[nH]c2ncc(-c3ccc(C(F)(F)F)nc3)cc12` [Compound P-0095, N-[2-fluoro-3-[5-[6-(trifluoromethyl)-3-pyridyl]-1H-pyrrolo[2,3-b]pyridine-3-carbonyl]phenyl]pyrrolidine-1-sulfonamide]: the IC50 in assay [1] was < 0.1 µM; in assay [2] it was < 1 µM.

In the case of `Cc1ncc(-c2cnc3[nH]cc(C(=O)c4cccc(NS(=O)(=O)N(C)C)c4F)c3c2)cn1` [Compound P-0097, 3-[3-(dimethylsulfamoylamino)-2-fluoro-benzoyl]-5-(2-methylpyrimidin-5-yl)-1H-pyrrolo[2,3-b]pyridine], the figures for the IC50 in assay [1] and in assay [2] were < 0.1 µM and < 1 µM, respectively.

Regarding `CN(C)S(=O)(=O)Nc1cccc(C(=O)c2c[nH]c3ncc(-c4cncc(C#N)c4)cc23)c1F` [Compound P-0098, 5-(5-cyano-3-pyridyl)-3-[3-(dimethylsulfamoylamino)-2-fluoro-benzoyl]-1H-pyrrolo[2,3-b]pyridine], the IC50 in assay [1] was < 0.1 µM; in assay [2], < 1 µM.

For the molecule `CN(C)S(=O)(=O)Nc1cccc(C(=O)c2c[nH]c3ncc(-c4ccc(C#N)nc4)cc23)c1F` [Compound P-0099, 5-(6-cyano-3-pyridyl)-3-[3-(dimethylsulfamoylamino)-2-fluoro-benzoyl]-1H-pyrrolo[2,3-b]pyridine], the IC50 was < 0.1 µM in assay [1] and > 1 µM in assay [2].

`CCN(C)S(=O)(=O)Nc1cccc(C(=O)c2c[nH]c3ncc(-c4cnc(C#N)nc4)cc23)c1F` [Compound P-0100, 5-(2-cyanopyrimidin-5-yl)-3-[3-[[ethyl(methyl)sulfamoyl]amino]-2-fluoro-benzoyl]-1H-pyrrolo[2,3-b]pyridine]: the IC50 is < 0.1 µM in assay [1] and > 1 µM in assay [2].

These data come from US20230277534A1 (Plexxikon Inc., priority 2011, published 2023).
